Like-named read-outs stand apart in the source and are kept apart here.
Experiments:
Type in all cases: cell-based
[1] = tested on: Trypanosoma brucei rhodesiense STIB 900 strain; experiment: Trypanosoma brucei rhodesiense STIB 900 screening assay; details: STIB 900 bloodstream forms, 72 h, Alamar Blue, protocol of Example 114, read-out: Swiss TPH T b rhodesiense IC50
Method: Example 114. Trypanosoma brucei rhodesiense STIB 900 Screening Assay Procedure
The Trypanosoma brucei rhodesiense STIB 900 strain was isolated in 1982 from a human patient in Tanzania and after several mouse passages cloned and adapted to axenic culture conditions (Baltz, et al., EMBO Journal 4: 1273-1277 (1985); Thuita, et al., Acta Tropica 108: 6-10 (2008)). Minimum Essential Medium (50 μL) supplemented with 25 mM HEPES, 1 g/L additional glucose, 1% MEM non-essential amino acids (100×), 0.2 mM 2-mercaptoethanol, 1 mM Na-pyruvate and 15% heat inactivated horse serum was added to each well of a 96-well microtiter plate. Serial drug dilutions of seven 3-fold steps covering a range from 90 to 0.123 μg/mL were prepared. Then 10^4 bloodstream forms of T. b. rhodesiense STIB 900 in 50 μL was added to each well and the plate incubated at 37° C. under a 5% CO2 atmosphere for 72 h. 10 μL Alamar Blue (resazurin, 12.5 mg in 100 mL double-distilled water) was then added to each well and incubation continued for a further 2-4 h (Raz, et al., Acta Tropica 68: 139-47 (1997)). Then the plates were read with a Spectramax Gemini XS microplate fluorometer (Molecular Devices Corporation, Sunnyvale, Calif., USA) using an excitation wavelength of 536 nm and an emission wavelength of 588 nm. Data were transferred into the graphic program Softmax Pro (Molecular Devices), which calculated IC50 values.

[2] = tested on: L. infantum MHOM/MA(BE)/67 amastigotes in primary peritoneal mouse macrophages; experiment: Leishmania infantum intracellular amastigote assay in mouse macrophages; details: Macrophage, 120 h, amastigotes in primary peritoneal mouse macrophages, 5 d, Giemsa staining, read-out: Inhibition of Organism Growth in Leishmania infantum MHOM/MA/BE/67, 5 d
Summary of the method: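 Amastigotes harvested from infected hamster spleen infected primary peritoneal mouse macrophages (5×10^5 amastigotes/well, 2 h, 37 °C). Compounds then present 5 d at 37 °C, 5% CO2. Parasite burden counted by microscopy after Giemsa staining, as % of untreated controls; IC50 from sigmoidal variable-slope fit.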

[3] = tested on: IL3000 T. congolense (drug sensitive) strain; experiment: In vitro Alamar Blue 72 h drug sensitivity assay for T. congolense; details: Trypanosoma congolense; for IC50: bloodstream form, 69 h + 3 h resazurin, 34° C., classes A-C, read-out: IC50: I Org. Growth T. congolense IL-3000, 3 d; for inhibition at 1 µM: read-out: inhibition of T. congolense IL-3000 growth at a concentration of 1.0 μM (classes D, E)
Summary of the method: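 Bloodstream-form trypanosomes in HMI medium with 20% bovine serum, exposed to compound for 69 h at 34 °C, 5% CO2, then resazurin for 3 h more. Fluorescence read at 536/588 nm. IC50 from 11-point sigmoidal dose-response curves, at least three independent runs.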

[4] = tested on: TdTomato-modified T. cruzi (CL strain) in Vero cells; experiment: In vitro IC50 measurement of T. cruzi amastigote killing using TdTomato-modified T. cruzi (CL strain); details: Trypanosoma cruzi, 72 h, fluorescence, read-out: IC50: I Org. amastigote Growth T. cruzi CL TdTomato, 3 d
Summary of the method: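 Vero cells were infected with tdTomato-expressing CL-strain parasites and dosed at 5 uM–5 nM. Fluorescence (ex 544/em 612 nm) was read at day 0 and again after 72 h at 37 °C, with day 0 values subtracted. IC50 and IC90 came from nonlinear regression.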

[5] = tested on: bloodstream forms of T. b. rhodesiense STIB 900; experiment: T. brucei rhodesiense STIB 900 growth inhibition assay; details: Trypanosoma brucei; bloodstream forms, 72 h, Alamar Blue; protocol of Example 110; read-out: IC50: I Org. Growth T. brucei rhodesiense STIB 900, 3 d
Summary of the method: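 Bloodstream-form STIB 900 (10^4/well) were cultured in supplemented MEM with 15% horse serum and compound (90 to 0.123 μg/ml, 3-fold steps) for 72 h at 37 °C, 5% CO2. Viability was read by Alamar Blue fluorescence (ex 536/em 588 nm) after a further 2-4 h.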

[6] = tested on: bloodstream-form trypanosome T. brucei brucei 427 strain; experiment: Trypanosoma brucei brucei high-throughput screening assay (resazurin)
Method: Example 105. Trypanosoma brucei brucei High-Throughput Screening Assay Procedure
All experiments were conducted with the bloodstream-form trypanosome T. brucei brucei 427 strain obtained from Seattle Biomedical Research Institute (Seattle, Wash.). Parasites were cultured in T-25 vented cap flasks and kept in humidified incubators at 37° C. and 5% CO2. The parasite culture media was complete HMI-9 medium containing 10% FBS, 10% Serum Plus medium and penicillin/streptomycin. To ensure log growth phase, trypanosomes were sub-cultured at appropriate dilutions every 2-3 days. Approximately 50 microliters of log phase cultures were diluted 1:10 in HMI-9 and 10 μL of the diluted culture was removed and counted using a hemocytometer to determine parasite concentration. Parasites were diluted by addition of an appropriate volume of HMI-9 to achieve a final parasite concentration of 2×10^5/mL. Compounds of the invention to be tested were serially diluted in DMSO and 0.5 μL added to 49.5 μL HMI-9 in triplicate 96-well plates using a Biomek NX liquid handler. Parasites from the diluted stock were added to each well (50 μL) using a Multidrop 384 dispenser to give a final concentration of 1.0×10^5/ml parasites in […] for DMSO. Trypanosomes were incubated with compounds for 72 hrs at 37° C. with 5% CO2. Resazurin (20 μL of 12.5 mg/ml stock) from Sigma-Aldrich was added to each well and plates were incubated for an additional 2-4 hrs. Assay plates were read using an EnVision plate reader at an excitation wavelength of 544 nm and emission of 590 nm. Triplicate data points were averaged to generate sigmoidal dose response curve and determine IC50 values using XLfit curve fitting software from IDBS (Guildford, UK).

[7] = bloodstream form, 72 hrs incubation, resazurin, read-out: IC50: I Org. Growth T. brucei brucei SBRI 427, 3 d
[8] = 72 h, read-out: IC50: I Org. Growth T. brucei brucei SBRI 427, 3 d [uM]

Cc1cccc(-n2cc(C(=O)Nc3ccc4c(c3)B(O)OC4)nn2)n1 [Example 57, N-(1-hydroxy-1,3-dihydrobenzo[c][1,2]oxaborol-6-yl)-1-(6-methylpyridin-2-yl)-1H-1,2,3-triazole-4-carboxamide]
IC50 [1]: < 100 nM | IC50 [2]: < 3000 nM | IC50 [3]: < 100 nM | IC50 [4]: < 600 nM | IC50 [5]: < 100 nM

O=C(Nc1ccc2c(c1)B(O)OC2)c1cn(-c2cccnc2)nn1 [Example 63, N-(1-hydroxy-1,3-dihydrobenzo[c][1,2]oxaborol-6-yl)-1-(pyridin-3-yl)-1H-1,2,3-triazole-4-carboxamide]
IC50 [1]: 100 to 250 nM | IC50 [2]: 20000 to 100000 nM | IC50 [3]: < 100 nM | IC50 [4]: 1100 to 10000 nM | IC50 [5]: 100 to 300 nM

COc1cccc(-n2nnc(C(=O)Nc3ccc4c(c3)B(O)OC4)c2C)n1 [Example 65, N-(1-hydroxy-1,3-dihydrobenzo[c][1,2]oxaborol-6-yl)-1-(6-methoxypyridin-2-yl)-5-methyl-1H-1,2,3-triazole-4-carboxamide]
IC50 [1]: < 100 nM | IC50 [2]: < 3000 nM | IC50 [3]: < 100 nM | IC50 [4]: < 600 nM | IC50 [5]: < 100 nM

Cc1cccc(-n2nnc(C(=O)Nc3ccc4c(c3)B(O)OC4)c2C)n1 [Example 81, N-(1-hydroxy-1,3-dihydrobenzo[c][1,2]oxaborol-6-yl)-5-methyl-1-(6-methylpyridin-2-yl)-1H-1,2,3-triazole-4-carboxamide]
IC50 [1]: 100 to 250 nM | IC50 [2]: 3000 to 19900 nM | IC50 [3]: < 100 nM | IC50 [4]: 1100 to 10000 nM | IC50 [5]: 100 to 300 nM

Cc1c(C(=O)Nc2ccc3c(c2)B(O)OC3)nnn1-c1ccc(Cl)cc1 [Example 90, 1-(4-chlorophenyl)-N-(1-hydroxy-1,3-dihydrobenzo[c][1,2]oxaborol-6-yl)-5-methyl-1H-1,2,3-triazole-4-carboxamide]
IC50 [6, 7]: 0.075 to 0.15 µM

Cn1nc(-c2ccccn2)nc1C(=O)Nc1ccc2c(c1)B(O)OC2 [Example 95, N-(1-hydroxy-1,3-dihydrobenzo[c][1,2]oxaborol-6-yl)-1-methyl-3-(pyridine-2-yl)-1H-1,2,4-triazole-5-carboxamide]
IC50 [6, 8]: 0.151 to 10 µM

Cn1nc(-c2ccccc2)nc1C(=O)Nc1ccc2c(c1)B(O)OC2 [Example 96, N-(1-hydroxy-1,3-dihydrobenzo[c][1,2]oxaborol-6-yl)-1-methyl-3-phenyl-1H-1,2,4-triazole-5-carboxamide]
IC50 [6, 7]: 0.151 to 10 µM | inhibition at 1 µM [3]: < 75%

Cn1nc(-c2ccc(F)cc2)nc1C(=O)Nc1ccc2c(c1)B(O)OC2 [Example 97, 3-(4-fluorophenyl)-N-(1-hydroxy-1,3-dihydrobenzo[c][1,2]oxaborol-6-yl)-1-methyl-1H-1,2,4-triazole-5-carboxamide]
IC50 [6, 7]: 0.151 to 10 µM | inhibition at 1 µM [3]: < 75%

O=C(Nc1ccc2c(c1)B(O)OC2)c1nc(-c2cccnc2)n[nH]1 [Example 98, N-(1-hydroxy-1,3-dihydrobenzo[c][1,2]oxaborol-6-yl)-3-(pyridin-3-yl)-1H-1,2,4-triazole-5-carboxamide]
IC50 [6, 8]: 0.151 to 10 µM

Cn1nc(C(=O)Nc2ccc3c(c2)B(O)OC3)nc1-c1ccc(F)cc1 [Example 100, 5-(4-Fluorophenyl)-N-(1-hydroxy-1,3-dihydrobenzo[c][1,2]oxaborol-6-yl)-1-methyl-1H-1,2,4-triazole-3-carboxamide]
IC50 [6, 7]: 0.075 to 0.15 µM

O=C(Nc1ccc2c(c1)B(O)OC2)c1nc(-c2ccccc2)n[nH]1 [Example 101, N-(1-hydroxy-1,3-dihydrobenzo[c][1,2]oxaborol-6-yl)-3-phenyl-1H-1,2,4-triazole-5-carboxamide]
IC50 [6, 7]: 0.075 to 0.15 µM | inhibition at 1 µM [3]: > 75%

Cn1nc(C(=O)Nc2ccc3c(c2)B(O)OC3(C)C)nc1-c1ccccc1 [Example 103, N-(1-hydroxy-3,3-dimethyl-1,3-dihydrobenzo[c][1,2]oxaborol-6-yl)-1-methyl-5-phenyl-1H-1,2,4-triazole-3-carboxamide]
IC50 [1]: < 100 nM | IC50 [2]: 3000 to 19900 nM | IC50 [5]: 310 to 10000 nM

Reference: patent US11691992B2 (Anacor Pharmaceuticals, Inc., priority 2017, dated 2023)
